{"source": "patent US9522197B2", "about": "“Nanoparticles comprising a cyclodextrin and a biologically active molecule and uses thereof” (INNOUP FARMA, S.L., priority 2007, dated 2016)"}
{"assay": "Quantification of cyclodextrin associated with the nanoparticles (HPLC-ELSD)", "type": "physicochemical", "conditions": "PVM/MA 100 mg, cyclodextrin 25 mg, incubation 30 min; n=12", "protocol": "The analysis was conducted in a 1100 series LC model chromatograph (Agilent, Waldbornn, Germany) and the data was analyzed in a Hewlett-Packard computer by means of the Chem-Station G2171 program (Agueros et al., J. Pharm. and Biomed. Anal., 39 (2005) 495-502).\nFor the sample analysis, the supernatants obtained after the purification process of the nanoparticles were diluted up to 10 ml with purified water. After adding the internal standard (PEG 6000), 1 ml aliquots of supernatant were taken as a sample. The samples were analyzed using a Zorbax Eclipse XDB-Phenyl column (Agilent 150 mm×2.1 mm) and a mixture of water/acetonitrile in a gradient (see Table 1) as a mobile phase at a flow of 0.25 ml/min.\nThe conditions of the detector (ELSD) were optimized until achieving the maximum sensitivity according to the gradient used in the mobile phase (Nebulizer Temperature: 115° C.; Nitrogen Flow: 3.2 ml/min). The chromatographic separation of the different cyclodextrins, of PVM/MA and of the internal standard (PEG 6000) was carried out in less than 15 minutes. The retention times were:\nIn the case of the quantification of aminated cyclodextrin [e.g. 6-monodeoxy-6-monoamino-β-cyclodextrin (NH-β-CD)] associated to the nanoparticles, a variant of the above described method was used to prevent the overlapping of the peaks of the cyclodextrin and the polymer. Therefore, the samples were analyzed using an NH2-Zorbax column (Agilent 4.6×150 mm, 5 μm), heated to 40° C. and a mixture of methanol/water (80/20 v/v) as a mobile phase at a flow of 1 ml/min. The conditions of the detector (ELSD) were the following: Nebulizer Temperature: 71° C. and Nitrogen Flow: 1.9 ml/min. The chromatographic separation of 6-monodeoxy-6-monoamino-β-cyclodextrin was carried out in less than 7 minutes. The retention time was 3.8±0.07 minutes.\nFinally, the amount of cyclodextrin (CD) associated to the nanoparticles was calculated as the difference between the amount of CD initially added and the amount of CD quantified in the supernatants."}
{"compound": "NC[C@H]1O[C@@H]2O[C@H]3[C@H](O)[C@@H](O)[C@@H](O[C@H]4[C@H](O)[C@@H](O)[C@@H](O[C@H]5[C@H](O)[C@@H](O)[C@@H](O[C@H]6[C@H](O)[C@@H](O)[C@@H](O[C@H]7[C@H](O)[C@@H](O)[C@@H](O[C@H]8[C@H](O)[C@@H](O)[C@@H](O[C@H]1[C@H](O)[C@H]2O)O[C@@H]8CO)O[C@@H]7CO)O[C@@H]6CO)O[C@@H]5CO)O[C@@H]4CO)O[C@@H]3CO", "note": "[NH-β-CD, 6-monodeoxy-6-monoamino-β-cyclodextrin]", "Associated CD": "~70 µg/mg"}
{"compound": "2-hydroxypropyl-β-cyclodextrin [OH-β-CD]", "Associated CD": "~70 µg/mg"}
{"compound": "OC[C@H]1O[C@@H]2O[C@H]3[C@H](O)[C@@H](O)[C@@H](O[C@H]4[C@H](O)[C@@H](O)[C@@H](O[C@H]5[C@H](O)[C@@H](O)[C@@H](O[C@H]6[C@H](O)[C@@H](O)[C@@H](O[C@H]7[C@H](O)[C@@H](O)[C@@H](O[C@H]8[C@H](O)[C@@H](O)[C@@H](O[C@H]1[C@H](O)[C@H]2O)O[C@@H]8CO)O[C@@H]7CO)O[C@@H]6CO)O[C@@H]5CO)O[C@@H]4CO)O[C@@H]3CO", "note": "[β-CD, β-cyclodextrin]", "Associated CD": "about 90 μg/mg"}
